Paper PMC10466331, “Fluorescence polarisation activity-based protein profiling for the identification of deoxynojirimycin-type inhibitors selective for lysosomal retaining alpha- and beta-glucosidases” (Chemical Science, 2023)
Like-named read-outs stand apart in the source and are kept apart here.

Tests used:
[1] = molecular target: T1, recombinant human GAA (rhGAA, Myozyme) (Homo sapiens, UniProt P10253); assay: competitive FluoPol-ABPP assay on rhGAA with TAMRA-ABP II; assay type: biochemical; conditions: library screen, 5 μM inhibitor, 25 nM ABP II;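 note: fluorescence polarization read at 540 nm excitation and 590 nm emission, background-corrected, normalized to uninhibited probe labelling as 100% and excess cyclosulfate as 0%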
T1 construct: purchased Genzyme

[2] = molecular target: T2, ER α-glucosidase GANAB (from Pompe disease Fibroblast lysates) (Homo sapiens, UniProt Q14697); assay: fluorogenic substrate (4MU-α-D-glucopyranoside) assay on GANAB in Pompe fibroblast homogenates; assay type: biochemical;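 note: inhibitor preincubated 30 min at 37 °C with homogenate, then GANAB activity read after 2 h with 3.0 mM fluorogenic substrate in McIlvaine buffer containing 0.1% BSA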
T2 construct: Cellular homogenates of Pompe fibroblasts (1 mg mL^−1) were used as protein source for GANAB; endogenous in cells; host or cells: Pompe disease fibroblasts (homogenate)
T2 sequence (Q14697 29-944): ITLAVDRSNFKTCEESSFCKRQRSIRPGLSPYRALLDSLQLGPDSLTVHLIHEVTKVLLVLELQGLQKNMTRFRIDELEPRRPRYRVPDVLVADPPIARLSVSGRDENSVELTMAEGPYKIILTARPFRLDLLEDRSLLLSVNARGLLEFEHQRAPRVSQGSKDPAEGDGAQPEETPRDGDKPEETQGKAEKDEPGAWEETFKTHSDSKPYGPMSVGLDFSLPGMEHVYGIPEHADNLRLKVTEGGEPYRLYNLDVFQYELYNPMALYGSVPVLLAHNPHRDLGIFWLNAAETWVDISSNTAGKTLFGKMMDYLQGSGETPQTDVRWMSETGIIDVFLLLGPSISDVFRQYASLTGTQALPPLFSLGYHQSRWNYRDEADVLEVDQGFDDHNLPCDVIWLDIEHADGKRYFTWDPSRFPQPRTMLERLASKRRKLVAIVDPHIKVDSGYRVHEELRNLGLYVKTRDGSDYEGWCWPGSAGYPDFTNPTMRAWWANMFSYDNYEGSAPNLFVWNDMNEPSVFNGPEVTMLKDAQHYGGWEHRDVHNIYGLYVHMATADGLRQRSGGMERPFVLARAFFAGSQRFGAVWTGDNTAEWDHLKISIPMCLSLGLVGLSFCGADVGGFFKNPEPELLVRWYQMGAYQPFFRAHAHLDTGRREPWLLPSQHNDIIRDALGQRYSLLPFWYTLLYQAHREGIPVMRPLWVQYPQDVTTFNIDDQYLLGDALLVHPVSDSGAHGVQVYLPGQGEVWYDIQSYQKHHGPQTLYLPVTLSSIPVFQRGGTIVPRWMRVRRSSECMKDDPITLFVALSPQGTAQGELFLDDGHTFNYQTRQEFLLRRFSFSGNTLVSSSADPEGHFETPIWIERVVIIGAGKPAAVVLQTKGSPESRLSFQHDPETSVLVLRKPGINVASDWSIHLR
T2 sequence (P14314 15-528 partner): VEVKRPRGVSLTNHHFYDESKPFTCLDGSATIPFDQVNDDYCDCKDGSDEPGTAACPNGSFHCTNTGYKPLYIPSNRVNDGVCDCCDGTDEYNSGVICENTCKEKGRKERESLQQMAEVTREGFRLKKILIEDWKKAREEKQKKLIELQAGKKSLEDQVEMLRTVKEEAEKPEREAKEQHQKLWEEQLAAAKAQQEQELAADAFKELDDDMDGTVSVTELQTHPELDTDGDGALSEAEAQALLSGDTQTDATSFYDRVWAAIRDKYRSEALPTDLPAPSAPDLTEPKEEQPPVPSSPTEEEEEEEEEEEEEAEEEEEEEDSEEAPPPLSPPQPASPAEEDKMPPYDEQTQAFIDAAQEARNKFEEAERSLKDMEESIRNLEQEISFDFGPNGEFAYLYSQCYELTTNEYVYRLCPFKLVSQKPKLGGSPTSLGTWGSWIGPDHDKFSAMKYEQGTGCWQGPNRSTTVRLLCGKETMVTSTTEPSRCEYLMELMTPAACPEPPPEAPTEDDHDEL

[3] = molecular target: T3, human recombinant lysosomal α-glucosidase GAA (Myozyme) (Homo sapiens, UniProt P10253); assay: fluorogenic substrate (4MU-α-D-glucopyranoside) assay on rhGAA; assay type: biochemical
T3 construct: purchased Genzyme

[4] = molecular target: T4, recombinant human GBA1 (rhGBA1, Cerezyme) (Homo sapiens, UniProt P04062, R534H); assay: competitive FluoPol-ABPP assay on rhGBA1 with TAMRA-ABP I; assay type: biochemical; conditions: library screen, 5 μM inhibitor, 5 nM ABP I
T4 construct: purchased Genzyme
T4 sequence (P04062 40-536 R534H): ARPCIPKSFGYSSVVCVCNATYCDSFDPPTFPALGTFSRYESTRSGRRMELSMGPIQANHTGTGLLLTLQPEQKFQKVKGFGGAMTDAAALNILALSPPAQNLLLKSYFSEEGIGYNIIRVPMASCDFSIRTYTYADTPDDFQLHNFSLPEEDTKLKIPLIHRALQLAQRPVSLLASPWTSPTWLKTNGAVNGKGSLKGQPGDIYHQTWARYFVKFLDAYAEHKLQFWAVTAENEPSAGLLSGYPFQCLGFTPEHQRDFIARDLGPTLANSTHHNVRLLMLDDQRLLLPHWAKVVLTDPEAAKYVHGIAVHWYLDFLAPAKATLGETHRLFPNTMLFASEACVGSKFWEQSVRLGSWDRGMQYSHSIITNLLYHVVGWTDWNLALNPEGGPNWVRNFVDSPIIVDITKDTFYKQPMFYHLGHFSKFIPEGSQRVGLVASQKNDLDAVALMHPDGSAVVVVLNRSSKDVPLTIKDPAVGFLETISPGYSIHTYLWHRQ

[5] = test system: GBA2 (GBA2-overexpressing HEK293T lysate); conditions: cited from earlier work
[6] = test system: glucosylceramide synthase (GCS) (RAW 264.7 cells); conditions: in situ; cited from earlier work
rhGBA1 (Cerezyme) = conditions: read-out: IC50 GBA1; cited from earlier work
[7] = Table S2, 4-MU alpha glucoside substrate, read-out: IC50 on GANAB
[8] = Table S2, 4-MU alpha glucoside substrate, read-out: IC50 on rhGAA
[9] = 4MU-α-glucoside substrate, pH 7.0, mean ± SD, 3 technical replicates, read-out: IC50 GANAB

OC[C@@H]1[C@@H](O)[C@H](O)[C@@H](O)CN1CCCCCOCc1ccc(-c2cccnc2)cc1 [#ID 318]
GAA FP% (residual FP-signal) [1]: 0.6% | IC50 [2, 7]: 1700 nM | IC50 [3, 8]: 85 nM

OC[C@@H]1[C@@H](O)[C@H](O)[C@@H](O)CN1CCCCCOCc1ccc(-c2cncnc2)cc1 [#ID 320]
GAA FP% (residual FP-signal) [1]: 1.0% | IC50 [2, 7]: 1300 nM | IC50 [3, 8]: 82 nM

OC[C@@H]1[C@@H](O)[C@H](O)[C@@H](O)CN1CCCCCOCc1ccc(-c2ccc(F)nc2)cc1 [#ID 322]
GAA FP% (residual FP-signal) [1]: 0.8% | IC50 [2, 7]: 1700 nM | IC50 [3, 8]: 80 nM

OC[C@@H]1[C@@H](O)[C@H](O)[C@@H](O)CN1CCCCCOCc1ccc(-c2ccc3c(c2)OCCO3)cc1 [#ID 324]
GAA FP% (residual FP-signal) [1]: 0.9% | IC50 [2, 7]: 570 nM | IC50 [3, 8]: 12 nM

Cc1ccccc1-c1ccc(COCCCCCN2C[C@H](O)[C@@H](O)[C@H](O)[C@H]2CO)cc1 [#ID 326]
GAA FP% (residual FP-signal) [1]: 0.8% | IC50 [2, 7]: 690 nM | IC50 [3, 8]: 12 nM

N#Cc1ccccc1-c1ccc(COCCCCCN2C[C@H](O)[C@@H](O)[C@H](O)[C@H]2CO)cc1 [#ID 328]
GAA FP% (residual FP-signal) [1]: 0.7% | IC50 [2, 7]: 1700 nM | IC50 [3, 8]: 21 nM

OC[C@@H]1[C@@H](O)[C@H](O)[C@@H](O)CN1CCCCCOCc1ccc(-c2ccccc2F)cc1 [#ID 330]
GAA FP% (residual FP-signal) [1]: 0.8% | IC50 [2, 7]: 1600 nM | IC50 [3, 8]: 98 nM

COc1ccccc1-c1ccc(COCCCCCN2C[C@H](O)[C@@H](O)[C@H](O)[C@H]2CO)cc1 [#ID 332]
GAA FP% (residual FP-signal) [1]: 0.8% | IC50 [2, 7]: 1300 nM | IC50 [3, 8]: 130 nM

OC[C@@H]1[C@@H](O)[C@H](O)[C@@H](O)CN1CCCCCOCc1ccc(-c2ccnc(F)c2)cc1 [#ID 334]
GAA FP% (residual FP-signal) [1]: 1.5% | IC50 [2, 7]: 1600 nM | IC50 [3, 8]: 160 nM

OC[C@@H]1[C@@H](O)[C@H](O)[C@@H](O)CN1CCCCCOCc1ccc(-c2ccccc2)cn1 [#ID 336]
GAA FP% (residual FP-signal) [1]: 0.4% | IC50 [2, 7]: 310 nM | IC50 [3, 8]: 37 nM

OC[C@@H]1[C@@H](O)[C@H](O)[C@@H](O)CN1CCCCCOCc1ccccc1-c1ccccc1 [#ID 339]
GAA FP% (residual FP-signal) [1]: 0.9% | IC50 [2, 7]: 620 nM | IC50 [3, 8]: 100 nM

OC[C@@H]1[C@@H](O)[C@H](O)[C@@H](O)CN1CCCCCOCc1cccc(-c2ccccc2)c1 [#ID 341]
GAA FP% (residual FP-signal) [1]: 1.8% | IC50 [2, 7]: 520 nM | IC50 [3, 8]: 54 nM

OC[C@@H]1[C@@H](O)[C@H](O)[C@@H](O)CN1CCCCCOCc1ccc(-c2ccccc2)cc1 [#ID 343]
GAA FP% (residual FP-signal) [1]: 0.6% | IC50 [2, 7]: 250 nM | IC50 [3, 8]: 43 nM

C[C@@H](OCCCCCN1C[C@H](O)[C@@H](O)[C@H](O)[C@H]1CO)c1ccc(-c2ccccc2)cc1 [#ID 345]
GAA FP% (residual FP-signal) [1]: 1.5% | IC50 [2, 7]: 370 nM | IC50 [3, 8]: 58 nM

C[C@H](OCCCCCN1C[C@H](O)[C@@H](O)[C@H](O)[C@H]1CO)c1ccc(-c2ccccc2)cc1 [#ID 347]
GAA FP% (residual FP-signal) [1]: 0.4% | IC50 [2, 7]: 400 nM | IC50 [3, 8]: 42 nM

OC[C@@H]1[C@@H](O)[C@H](O)[C@@H](O)CN1CCCCCOCc1ccc(-c2ccc(Br)cc2)cc1 [#ID 348]
GAA FP% (residual FP-signal) [1]: 3.1% | IC50 [2, 7]: 610 nM | IC50 [3, 8]: 23 nM

OC[C@@H]1[C@@H](O)[C@H](O)[C@@H](O)CN1CCCC(F)(F)COCc1ccc(-c2ccccc2)cc1 [#ID 349]
GAA FP% (residual FP-signal) [1]: 3.0% | IC50 [2, 7]: 4400 nM | IC50 [3, 8]: 28 nM

OC[C@@H]1[C@@H](O)[C@H](O)[C@@H](O)CN1CCCCCOCc1ccc(-c2ccccc2)cc1 [Compound 6]
GAA FP% (residual FP-signal) ([1]; listed as 62): 3.8% | IC50 [2, 9]: 8290 ± 170 nM | IC50 [2, 7]: 8300 nM | IC50 ([3]; 4MU-α-glucoside substrate, pH 4.0, mean ± SD, 3 technical replicates, read-out: IC50 GAA): 1180 ± 310 nM | IC50 [3, 8]: 1200 nM

O[C@@H]1[C@@H](O)[C@@H](CCCCCCOCC23CC4CC(CC(C4)C2)C3)NC[C@H]1O [Compound 7]
inhibition at 5 µM [4]: > 90%

OC[C@H]1N[C@H](CCCCCCOCC23CC4CC(CC(C4)C2)C3)[C@H](O)[C@@H](O)[C@@H]1O [Compound 8]
GAA FP% (residual FP-signal) [1]: 29% | IC50 [3, 8]: 2460 nM | inhibition at 5 µM [4]: > 90%

OC[C@H]1N[C@H](CCCCCOCC23CC4CC(CC(C4)C2)C3)[C@H](O)[C@@H](O)[C@@H]1O [Compound 14]
IC50 [5]: 300 nM | GAA FP% (residual FP-signal) [1]: 34% | IC50 [2, 9]: > 100000 nM | IC50 [6]: 50000 nM | IC50 [3, 8]: 4000 nM | IC50 (rhGBA1 (Cerezyme)): 70 nM

OC[C@@H]1[C@@H](O)[C@H](O)[C@@H](O)CN1CCCCCOCc1cc2ccccc2c2ccccc12 [Compound 15]
IC50 [5]: 100 nM | GAA FP% (residual FP-signal) [1]: 25% | IC50 [2, 9]: 1960 ± 40 nM | IC50 [2, 7]: 2000 nM | IC50 [6]: > 20000 nM | IC50 [3, 8]: 110 nM | IC50 (rhGBA1 (Cerezyme)): 10000 nM
